Experimental data: US20220370366A1, “TABLETS CONTAINING CILOFEXOR AND PHARMACEUTICALLY ACCEPTABLE CARRIERS” (Gilead Sciences, Inc., priority 2019, published 2022)

Legend:
[1] = Single dose PK (AUCinf) in Phase 1 studies, effect of drug load on Compound 1 exposure and variability; type: in vivo, human; details: for AUC(0-inf): human, in vivo, oral, fasted, healthy volunteers, read-out: Mean (% CV) Compound 1 AUCinf
Text: Part A: prespecified cohorts (Cohorts 1-3): Randomized, partially blind, placebo-controlled, single- and multiple-doses with staggered dose-escalations. 60 unique subjects; 15 per cohort (12 Compound 1, 3 placebo-to-match (“PTM”))
Part A (Single- and Multiple-Ascending Doses, Pre-Specified Cohorts) proceeded in 4 staggered, pre-specified, dose-escalation cohorts and were governed by study specific stopping criteria. Within each cohort, 15 unique subjects were randomized 4:1 to receive blinded Compound 1 (N=12) or PTM (N=3). All study drugs in Part A were administered in a fasted state. Within each cohort, dose escalation from single-dose (Period 1) to multiple-dose (Period 2) were permitted after evaluation of cumulative blinded safety data up to and through Day 3 of the same cohort.
Fasted State Dosing: Study drug(s) were administered at approximately the same time each day following an overnight fast (no food or drinks except water, for at least 10 hours). Subjects continued to fast until after collection of the 2-hour PK sample, relative to study drug dosing.
(§1) Treatment A: Single dose of SEL 18 mg (1×18 mg tablet)+Compound 1 30 mg (1×30 mg tablet) coadministered orally in the morning within 5 minutes of completing a high-fat meal Treatment C: Single dose of Compound 1 30 mg (1×30 mg tablet) administered orally in the morning in the fasted state
(§2) Fasted Administration (Treatment C): Study drug(s) were administered in the morning following an overnight fast (no food or drinks except water for at least 10 hours). Subjects continued to fast until after collection of the 4-hour PK sample, relative to (first) study drug dosing. Additionally, subjects were restricted from water consumption 1 hour before until 2 hours after each study drug dosing, except for the 240 mL given with each study drug administration. Water may be consumed by subjects following the 2-hour blood draw for the remainder of the collection period. A meal (standardized lunch) was provided to subjects after the 4 hour postdose blood draw.
Eligible subjects received the following treatment: Single dose of 100 mg Compound 1 (1×100 mg tablet), administered orally in the morning on Day 1 following an overnight fast.
Each dose of study drug was administered in the morning on Day 1 with 240 mL of still (non-carbonated) water following an overnight fast (no food or drinks except water, for at least 10 hours). Subjects continued to fast and were restricted from food intake until after collection of the 4-hour blood draw. Additionally, subjects were restricted from consumption of water or other fluids 1 hour before until 2 hours after dosing, except for the 240 mL given with the study treatment.
Cohort 10 (Compound 1 100 mg, formulation 9 in Table 3):
Treatment F: Single dose of Compound 1 (1×100 mg tablet) administered orally in the morning in the fasted state.
(§3) Compound 1 was administered in the morning following an overnight fast (no food or drinks except water for at least 10 hours). Subjects continued to fast until after collection of the 4-hour PK sample, relative to the (first) study drug dosing. Additionally, subjects were restricted from water consumption 1 hour before until 2 hours after each study drug dosing, except for the 240 mL given with each study drug administration. Water was optionally consumed by subjects following the 2-hour blood draw for the remainder of the collection period. A meal (standardized lunch) is provided to subjects after the 4-hour post-dose blood draw.
Single dose pharmacokinetic exposure parameters (AUCinf) of Compound 1 from multiple Phase 1 studies in healthy volunteers which utilized various drug loads of Compound 1 were compared to determine if Compound 1 drug load impacted the variability and/or absolute value of Compound 1 systemic exposure.

[2] = Single dose PK (AUCinf) in Phase 1 studies, effect of meal type on Compound 1 exposure and variability; type: in vivo, human; details: for AUC(0-inf): human, in vivo, oral
Procedure: Part B (Adaptive Cohorts) is as follows: Based on available safety, pharmacokinetic (“PK”), and/or pharmacodynamic (“PD”) data from Part A, total daily doses for Part B (Cohorts 5 and 8) were chosen between 1 and 600 mg as well as frequency of dosing (once daily or twice a day) and meal conditions for dosing (fasted, low fat, moderate fat, or high fat meal). Once determined, dose level, frequency of dosing, and meal conditions were consistent within a cohort.
Fed State Dosing: Study drug(s) were administered at approximately the same time each day and within 5 minutes of completing a standardized meal. The meal was initiated 30 minutes prior to study drug administration. Subjects fasted until after collection of the 4-hour PK sample, relative to study drug dosing. Meal fat content (low fat, moderate fat, or high fat) was determined based on available data from […] cohorts.
as §1
Treatment I: Single dose of Compound 1 30 mg (1×30 mg tablet) administered orally in the morning within 5 minutes of completing a light meal
as §2
Light Meal Administration (Treatment I): Study drug(s) were administered with food and with 240 mL of water. Following an overnight fast (no food or drinks except water for at least 10 hours), a meal was initiated 30 minutes prior to study drug administration. The dose was administered at or within 5 minutes of the subjects completing (100%) of the provided light meal containing ˜400 kcal with ˜20% of the calories from fat. Subjects fasted for 4 hours after study drug administration. A meal (standardized lunch) was provided to subjects after the 4-hour post-dose blood draw. Additionally, water and other fluids was withheld 1 hour before until 2-hours after dose administration other than the water provided with dosing and beverages provided with the standardized meal (where applicable). Water may be consumed by subjects following the 2-hour blood draw for the remainder of the collection period.
High-Fat Meal Administration (Treatment A): Study drug(s) were administered with food and with 240 mL of water. Following an overnight fast (no food or drinks except water for at least 10 hours), a meal was initiated 30 minutes prior to study drug administration. The dose was administered at or within 5 minutes of the subjects completing (100%) of the provided high-fat meal containing ˜800-1000 kcal with -50% of calories from fat (approximately 150, 250, and 500-600 kcal from protein, carbohydrate, and fat, respectively). Subjects fasted for 4 hours after study drug administration. A meal (standardized lunch) was provided to subjects after the 4-hour post-dose blood draw. Additionally, water and other fluids was withheld 1 hour before until 2 hours after dose administration other than the water provided with dosing and beverages provided with the standardized meal (where applicable). Water may be consumed by subjects following the 2-hour blood draw for the remainder of the collection period.
Cohort 10 (Compound 1 100 mg, formulation 9 in Table 3): […]

[3] = Effect of acid-reducing agent (famotidine) on PK of Compound 1 single agent tablet, Cohort 11; type: in vivo, human; details: for AUC(0-inf): human, in vivo, oral, fasted, N=20
Procedure: The objective of Cohort 11 was to assess the effect of gastric acid reducing agents (ARAs) on the PK of Compound 1 single agent tablet using famotidine, a representative H2RA. Compound 1 100 mg strength tablets (as free form equivalent) were used. Famotidine was obtained from a commercially available source.
Treatment J: Single dose of Compound 1 (1×100 mg tablet) administered orally in the morning in the fasted state.
Treatment K: Single dose of Compound 1 (1×100 mg tablet) administered orally in the morning 2 hours after famotidine (FAM) (1×40 mg) in the fasted state.
as §3, with “Study drug(s) were” for “Compound 1 was”, “period.” for “period. A meal (standardized lunch) is provided to subjects after the 4-hour post-dose blood draw.”

[4] = in the drug product, Form I
[5] = drug loads such as 5% and 8% compared to 20% drug load

## O=C(O)c1ccnc(N2CC(O)(c3ccc(OCc4c(-c5c(Cl)cccc5Cl)noc4C4CC4)cc3Cl)C2)c1 [Compound 1, cilofexor]
[1]; [5]
  Compound 1 exposure: increased Compound 1 exposure
  Variability of Compound 1 exposure: reduction in variability
[1]; 30 mg, 30 mg single dose, 5% drug load
  AUC(0-inf): 2.47 µg·h/mL
[1]; 30 mg, 30 mg single dose, 20% drug load
  AUC(0-inf): 1.87 µg·h/mL
[1]; 100 mg, 100 mg single dose, 8% drug load
  AUC(0-inf): 7.48 µg·h/mL
[1]; 100 mg, 100 mg single dose, 12% drug load
  AUC(0-inf): 7.65 µg·h/mL
[1]; 100 mg, 100 mg single dose, 20% drug load
  AUC(0-inf): 7.74 µg·h/mL
[2]; 10 mg (5% drug load), AUCinf moderate-fat meal vs fasted
  % GLSM Ratio (90% CI): 74.9%
[2]; 30 mg (20% drug load), AUCinf high-fat meal (+ SEL 18 mg) vs fasted
  % GLSM Ratio (90% CI): 142%
[2]; 30 mg (20% drug load), AUCinf light-fat meal vs fasted
  % GLSM Ratio (90% CI): 37.5%
[2]; 100 mg (12% drug load), AUCinf high-fat meal vs fasted
  % GLSM Ratio (90% CI): 91.9%
[2]; 100 mg (12% drug load), AUCinf light-fat meal vs fasted
  % GLSM Ratio (90% CI): 65.7%
[2]; 100 mg (20% drug load), AUCinf moderate-fat meal vs fasted
  % GLSM Ratio (90% CI): 76.6%
[2]; high-fat meal
  Effect of food on Compound 1 exposure: increasing
[2]; 10 mg, 10 mg (5% drug load), fasted, N=12, read-out: Compound 1 AUCinf (% CV) Fasted
  AUC(0-inf): 1.26 µg·h/mL
[2]; 10 mg, 10 mg (5% drug load), moderate-fat meal, N=11, read-out: Compound 1 AUCinf (% CV) Fed
  AUC(0-inf): 0.924 µg·h/mL
[2]; 30 mg (20% drug load), high-fat meal, + SEL 18 mg, N=20, read-out: Compound 1 AUCinf (% CV) Fed
  AUC(0-inf): 1.92 µg·h/mL
[2]; 30 mg, 30 mg (20% drug load), fasted, N=20, read-out: Compound 1 AUCinf (% CV) Fasted
  AUC(0-inf): 1.87 µg·h/mL
[2]; 30 mg, 30 mg (20% drug load), light-fat meal, N=30, read-out: Compound 1 AUCinf (% CV) Fed
  AUC(0-inf): 0.608 µg·h/mL
[2]; 100 mg, 100 mg (12% drug load), fasted, N=20, read-out: Compound 1 AUCinf (% CV) Fasted
  AUC(0-inf): 7.65 µg·h/mL
[2]; 100 mg, 100 mg (12% drug load), high-fat meal, N=20, read-out: Compound 1 AUCinf (% CV) Fed
  AUC(0-inf): 5.93 µg·h/mL
[2]; 100 mg, 100 mg (12% drug load), light-fat meal, N=20, read-out: Compound 1 AUCinf (% CV) Fed
  AUC(0-inf): 4.17 µg·h/mL
[2]; 100 mg, 100 mg (20% drug load), fasted, N=12, read-out: Compound 1 AUCinf (% CV) Fasted
  AUC(0-inf): 7.74 µg·h/mL
[2]; 100 mg, 100 mg (20% drug load), moderate-fat meal, N=12, read-out: Compound 1 AUCinf (% CV) Fed
  AUC(0-inf): 5.02 µg·h/mL
[2]; light-fat and moderate-fat meals
  Effect of food on Compound 1 exposure: reducing
[2]; light-fat meal
  Variability of Compound 1 exposure: did not reduce variability
[2]; moderate- and high-fat meals compared to fasted administration, irrespective of % drug load
  Variability of Compound 1 exposure: reduced the variability
[2]; subjects with low exposure fasted or with light-fat meal vs subjects with high exposure
  Paired comparison of Compound 1 exposure, percent change with high-fat meal: greater percent increases in exposure
[3]; 100 mg (12% drug load), AUCinf with famotidine vs alone
  % GLSM Ratio (90% CI): 320 (263, 390) %
[3]; administered two hours after famotidine, 12% drug load
  Bioavailability of Compound 1 with famotidine pre-treatment: increase in bioavailability
[3]; 100 mg (12% drug load), 2 hours after famotidine 40 mg, read-out: Compound 1 AUCinf (% CV) with Famotidine (Test)
  AUC(0-inf): 13.6 µg·h/mL
[3]; 100 mg (12% drug load), read-out: Compound 1 AUCinf (% CV) Alone (Reference)
  AUC(0-inf): 4.49 µg·h/mL

## NC(CO)(CO)CO.O=C(O)c1ccnc(N2CC(O)(c3ccc(OCc4c(-c5c(Cl)cccc5Cl)noc4C4CC4)cc3Cl)C2)c1 [tromethamine salt of Compound 1]
[4]
  Chemical and physical stability: suitable chemical and physical stability
